The results in this text go back to US8829009B2, “Substituted 2-amino-3-(sulfonyl)pyrazolo[1,5-a]pyrimidines - serotonin 5-HT6 receptor antagonists, method for use thereof” (priority 2008, dated 2014).

Assay [1] has as its target T1, 5-HT6 receptor (Homo sapiens (Human), UniProt P50406). Put plainly: Functional assay: inhibition of serotonin-induced intracellular cAMP in HEK 293 cells expressing 5-HT6 receptor (LANCE cAMP). The assay is classed as cell-based. The settings on record: for inhibition at 10 µM: HEK293, read-out: % inhibition of 5-HT6 receptors, 10 μM solutions of compounds; for IC50: HEK 293 cells expressing 5-HT6 receptor, read-out: IC50 inhibition of serotonin 5-HT6 receptors in the setting of functional assay (serotonin-stimulated intracellular cAMP production). Here is the method: Determination of antagonistic activity of compounds of general formula 1 towards 5-HT6 receptors. Compounds of general formula 1 were tested for their ability to prevent 5-HT6 receptor activation by serotonin. HEK 293 cells (cells of human embryo's kidney) with artificially expressed 5-HT6 receptor, activation of which by serotonin leads to increasing the concentration of intracellular cAMP were used. The content of intracellular cAMP was determined using reagent kit LANCE cAMP (PerkinElmer) according to the method described by the manufacturer of the kit [http://las.perkinelmer.com/content/Manuals/MAN_LANCEcAMP384KitUser.pdf].
Effectiveness of compounds was estimated by their ability to reduce the content of intracellular cAMP induced by serotonin.
(TR-FRET usually uses a lanthanide donor and a delayed reading to cut background.)

Assay [2] deals with T1, 5-HT6 receptor. Nature of the assay: Competitive radioligand binding ([3H] Lysergic acid diethylamide) to membranes of HeLa cells expressing recombinant human 5-HT6 receptors. Here is the method: Activity determination of serotonin 5-HT6 receptor antagonists of the general formula 1 in the setting of competitive binding to serotonin 5-HT6 receptors.
Screening of the disclosed compounds for their potential ability to interact with serotonin 5-HT6 receptors was carried out by method of radioligand binding. For this purpose membrane species were prepared from expressing recombinant human 5-HT6 receptors HeLa cells by means of their homogenization in glass homogenizer with subsequent separation of plasmatic membranes from cell nucli, mitochondria's and cell wreckages by differential centrifugation. Determination of tested compounds binding with 5-HT6 receptors was carried out according to the method described in [Monsma F J Jr, Shen Y, Ward R P, Hamblin M W and Sibley D R, Cloning and expression of a novel serotonin receptor with high affinity for tricyclic psychotropic drugs. Mol Pharmacol. 43:320-327, 1993]. […] After incubation the samples were filtered in vacuo on glass-microfiber filters G/F (Millipor, USA), filters were washed three times with cold solution of medium and radioactivity was measured by scintillation counter MicroBeta 340 (PerkinElmer, USA). […] Binding of tested compounds to the receptor was determined by their ability to displace the radioligand and expressed in percent of displacement. The percent of displacement was calculated according to the following equation:
[formula] wherein: TA—was overall radioactivity in the presence of radioligand only, CA—was radioactivity in the presence of radioligand and tested compound and NA—was radioactivity in the presence of radioligand and Serotonin (5 μM).

Assay [3] relates to food consumption (appetite) in rats. Nature of the assay: Appetite control test in food-deprived rats. The class given is in vivo, rat. The settings on record: Vistar rats, 16 h food deprivation, 10 mg/kg intraperitoneally 60 min before test (FIG. 2 legend: 1 mg/kg). How it is done:
Appetite control test. Male rats of Vistar line weighing 230-360 g were housed in standard home cages with water and food available with the exception of short periods of food deprivation (16 hs) just before the Appetite test. The Appetite test was carried out in individual cages with overhead cover made of wire in the niches of which a portion of food granules was inserted. Mass of the granules was examined every 30 minutes for 3 h. On the basis of these measurements food consumption was estimated and stated in grams of food per kilogram of body mass. Placebo and the compound 1.1(1) (dose 10 mg/kg) were injected intraperitoneally 60 minutes before the test. Each experimental group of animals consisted of 10 rats. Compound was dissolved in sterilized water. The injection volume was 10 ml/kg. Intact animals which were not undergone food deprivation, and animals after food deprivation, but injected with sterilized water, were used as control. […]

Assay [4] concerns prepulse inhibition of startle in mice. Nature of the assay: Prepulse inhibition of the startle response in mice (Apomorphine-induced disturbance). The assay is classed as in vivo, mouse. The settings on record: SHK mice, 1 mg/kg, 60 min before test. Here is the method:
Antipsychotic activity of compounds of the general formula 1 in “Prepulse inhibition of the startle response in mice” test. Mice of SHK line weighing about 24-30 g were used in the test. Experiments were carried out during light period of animal's diurnal. Apomorphine hydrochloride and Haloperidol were received from Sigma Chemicals Company, (USA). Apomorphine hydrochloride was dissolved in 0.1% solution of ascorbic acid prepared with sterilized water; it was administered subcutaneously 15 minutes before the test. Haloperidol was dissolved in sterilized water using emulsifier Twin 80, it was administered intraperitoneally 60 minutes before the test. The compound 1.1(1) was dissolved in sterilized water, it was introduced subcutaneously 60 minutes before the test. Injection volume was 10 ml/kg. Solution of ascorbic acid prepared with sterilized water and Twin 80 were injected to control group of animals.
The test instrument consisted of a chamber made of transparent plexiglass (manufacturer—Columbia Instruments Company, USA) and placed on a platform the latter was lodged inside the sound insulating chamber. High frequency sound column transmitting acoustic stimulus was located 2 cm away from the platform. […] Inhibition of the startle in reply to prepulse-plus-pulse stimulus was calculated in percentage towards amplitude of startle in response to isolated pulse stimulus. […]

Structures are written as SMILES.

T1 sequence (P50406 whole entry): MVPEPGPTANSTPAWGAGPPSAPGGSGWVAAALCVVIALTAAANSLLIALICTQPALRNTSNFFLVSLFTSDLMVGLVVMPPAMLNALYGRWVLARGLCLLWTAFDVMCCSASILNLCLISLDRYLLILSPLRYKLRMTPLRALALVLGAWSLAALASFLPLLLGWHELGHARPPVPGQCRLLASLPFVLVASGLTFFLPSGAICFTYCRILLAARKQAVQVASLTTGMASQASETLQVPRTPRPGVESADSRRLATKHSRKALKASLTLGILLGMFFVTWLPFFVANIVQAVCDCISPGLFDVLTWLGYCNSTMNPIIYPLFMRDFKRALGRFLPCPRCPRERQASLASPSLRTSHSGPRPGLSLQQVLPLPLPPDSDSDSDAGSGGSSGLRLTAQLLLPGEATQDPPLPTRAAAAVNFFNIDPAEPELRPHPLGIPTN

The inhibition is the drop in the measured response relative to a control, in per cent. Broadly, the IC50 is the concentration that inhibits the measured activity by half. `Cc1cc(C)n2nc(N(C)C)c(S(=O)(=O)c3ccccc3)c2n1` [1.1(2), 2-dimethylamino-5,7-dimethyl-3-(phenylsulfonyl)pyrazolo[1,5-a]pyrimidine]: in assay [1], the inhibition at 10 µM was found to be 86% and the IC50 stood at 1180 nM.

Take `CNc1nn2c(-c3ccccc3)cc(C)nc2c1S(=O)(=O)c1ccccc1` [1(2)]: the inhibition at 10 µM in assay [1] came to 90%.

`CNc1nn2c(C)cc(C)nc2c1S(=O)(=O)c1ccc(F)cc1` [1.1(3), 2-methylamino-5,7-dimethyl-3-(4-fluorophenylsulfonyl)pyrazolo[1,5-a]pyrimidine]: in assay [1], the inhibition at 10 µM amounted to 99% and the 50% inhibitory concentration (IC50) was 6 nM.

Regarding `Cc1cc(C)n2nc(N(C)C)c(S(=O)(=O)c3cccc(Cl)c3)c2n1` [1.1(8), 2-dimethylamino-5,7-dimethyl-3-(3-chlorophenylsulfonyl)pyrazolo[1,5-a]pyrimidine], in assay [1], the inhibition at 10 µM is 96%.

As to `CNc1nn2c(C)cc(C)nc2c1S(=O)(=O)c1cccc(Cl)c1` [1.1(7), 2-methylamino-5,7-dimethyl-3-(3-chlorophenylsulfonyl)pyrazolo[1,5-a]pyrimidine], in assay [1], the inhibition at 10 µM stood at 100% and the IC50 turned out to be 2 nM.

Regarding `Cc1cc(C)n2nc(N(C)C)c(S(=O)(=O)c3cccc(F)c3)c2n1` [1.1(6), 2-dimethylamino-5,7-dimethyl-3-(3-fluorophenylsulfonyl)pyrazolo[1,5-a]pyrimidine], the inhibition at 10 µM in assay [1] worked out at 97%.

In the case of `Cc1cc(C)n2nc(N(C)C)c(S(=O)(=O)c3ccc(F)cc3)c2n1` [1.1(4), 2-dimethylamino-5,7-dimethyl-3-(4-fluorophenylsulfonyl)pyrazolo[1,5-a]pyrimidine], in assay [1], the inhibition at 10 µM worked out at 95%.

Take `Cc1cc(C)n2nc(N3CCNCC3)c(S(=O)(=O)c3ccccc3)c2n1` [1(12)]: the inhibition at 10 µM in assay [1] came to 76%.

Turning to `Cc1cc(C)n2nc(N(C)CCN(C)C)c(S(=O)(=O)c3ccccc3)c2n1` [1(9)], in assay [1], the inhibition at 10 µM is 88%.

Regarding `Cc1cc(C)n2nc(N3CCN(C)CC3)c(S(=O)(=O)c3ccccc3)c2n1` [1(13)], the inhibition at 10 µM in assay [1] was 80%.

Consider `CNc1nn2c(C)cc(C)nc2c1S(=O)(=O)c1ccncc1` [1(4)], for which the inhibition at 10 µM in assay [1] worked out at 97%.

As to `Cc1cc(C)n2nc(NCCCN(C)C)c(S(=O)(=O)c3ccccc3)c2n1` [1(10)], in assay [1], the inhibition at 10 µM is 94%.

Consider `CCNc1nn2c(C)cc(C)nc2c1S(=O)(=O)c1ccccc1` [1(7)], for which the inhibition at 10 µM in assay [1] turned out to be 104%.

By Ki is commonly meant the equilibrium dissociation constant of an inhibitor or competing ligand from its target. As to `CNc1nn2c(C)cc(C)nc2c1S(=O)(=O)c1ccccc1` [1.1(1), 2-methylamino-5,7-dimethyl-3-(phenylsulfonyl)pyrazolo[1,5-a]pyrimidine], the inhibition at 10 µM in assay [1] amounted to 77%. Moreover, the IC50 in assay [1] was 5 nM; in assay [2] (1.5 nM [3H] Lysergic acid diethylamide, 120 min at 37° C., read-out: IC50 in the setting of competitive binding), 0.511 nM. Moreover, the Ki in assay [2] (1.5 nM [3H] Lysergic acid diethylamide, 120 min at 37° C., read-out: Ki in the setting of competitive binding) stood at 0.237 nM. Further, in assay [2] (quantity not specified, differs from Table 4), the “activity of serotonin 5-HT6 receptor antagonist” value is listed as 4.61 nM. In addition, in assay [3], the “effect on appetite (food consumption) after food deprivation” value is on record as “capable to prevent appetite rising in rats”. The “effect on disturbance of prepulse inhibition of startle caused by Apomorphine” value in assay [4] is “prevented disturbance of prepulse inhibition of startle caused by Apomorphine”.

With `Cc1ccc(S(=O)(=O)c2c(Nc3ccccc3)nn3c(C)c(C)c(C)nc23)cc1` [1(1)], in assay [1], the inhibition at 10 µM was 77%.

In the case of `Cc1cc(C)n2nc(NCCN(C)C)c(S(=O)(=O)c3ccccc3)c2n1` [1(8)], in assay [1], the inhibition at 10 µM amounted to 91%.

For `CNc1nn2c(C)cc(C)nc2c1S(=O)(=O)c1ccc(F)c(Cl)c1` [1.1(9)], in assay [1], the inhibition at 10 µM amounted to 97% and the half-inhibitory concentration (IC50) was 4 nM.

As for `Cc1cc(C)n2nc(N3CCN(C(=O)OC(C)(C)C)CC3)c(S(=O)(=O)c3ccccc3)c2n1` [1(11)], the inhibition at 10 µM in assay [1] stood at 63%.

On to `CNc1nn2c(C)cc(C)nc2c1S(=O)(=O)c1cccc(F)c1` [1.1(5), 2-methylamino-5,7-dimethyl-3-(3-fluorophenylsulfonyl)pyrazolo[1,5-a]pyrimidine], for which, in assay [1], the inhibition at 10 µM came to 97% and the half-maximal inhibitory concentration (IC50) was found to be 5 nM.

`Cc1ccc(Nc2nn3c(C)cc(C)nc3c2S(=O)(=O)c2ccc(C)cc2)cc1` [1(14)]: the inhibition at 10 µM in assay [1] was determined as 70%.

On to `CNc1nn2c(C)cc(-c3ccccc3)nc2c1S(=O)(=O)c1ccccc1` [1(3)], for which the inhibition at 10 µM in assay [1] came out at 91%.

Consider `CNc1nn2c(C)cc(C)nc2c1S(=O)(=O)c1cccnc1` [1(5)], for which, in assay [1], the inhibition at 10 µM was 95%.

On to `CNc1nn2c(C)cc(C)nc2c1S(=O)(=O)c1cccs1` [1(6)], for which, in assay [1], the inhibition at 10 µM came to 98%.

Regarding `O=C(CCCN1CCC(O)(c2ccc(Cl)cc2)CC1)c1ccc(F)cc1` [Haloperidol, reference compound], the “effect on disturbance of prepulse inhibition of startle caused by Apomorphine” value in assay [4] is listed as “prevented disturbance of prepulse inhibition of startle caused by Apomorphine”.
